Assay results as given in patent US20260191786A1, “SOLID DOSAGE FORMS WITH HIGH ACTIVE AGENT LOADING” (Lonza Sales AG, priority 2018, published 2026).
Converted amounts (≈) assume the structure as drawn. Read-outs that look alike come from different tables or passages of the source.

Assays:
Format in all cases: physicochemical
[1] = Log P of the active agent
Text: Log P: The Log P value of an active agent is defined as the base 10 logarithm of the ratio of (1) the active agent concentration in an octanol phase to (2) the active agent concentration in a water phase when the two phases are in equilibrium with each other, is a widely accepted measure of lipophilicity. The Log P value may be measured experimentally or calculated using methods known in the art. The Log P value may be estimated experimentally by determining the ratio of the drug solubility in octanol to the drug solubility in water. When using a calculated value for the Log P value, the highest value calculated using any generally accepted method for calculating Log P is used.

[2] = pKa (base) of the active agent
[3] = Crystalline and amorphous solubility of the active agent in SIF / gastric buffer

pKa (base) [2] | Compound | Log P [1] | pKa [2] | solubility ([3]; 0.5% SIF (simulated intestinal fluid), fassgf or other biorelevant, amorphous, 0.5% SIF, read-out: amorphous solubility in 0.5% SIF) | solubility ([3]; gastric buffer (GB), simulated gastric fluid, thermodynamic from solid, crystalline, gastric buffer, read-out: crystalline solubility in gastric buffer (GB))
4.5 | Posaconazole | 4.5 | – | – | –
– | C#Cc1cccc(Nc2ncnc3cc(OCCOC)c(OCCOC)cc23)c1 [Erlotinib] | 2.8 | 5.3 | ~380 µg/mL (≈ 966 µM) | 182 µg/mL (≈ 463 µM)
